Measurements as given in patent publication US20070155739A1, “Substituted bis-amide metalloprotease inhibitors” (ALANTOS PHARMACEUTICALS, INC., priority 2005, published 2007).
Read-outs that look alike come from different tables or passages of the source.

Columns and labels:
[1] = Microsomal stability, rat microsomes; assay type: in vitro ADME; conditions: rat microsomes 0.3 mg/mL, 1 μM compound, 60 min at 37° C.
Experimental: (§1) Assay for Microsomal Stability
(§2) For microsomal stability testing 1 μM conzentration of compound and human or rat microsomes (0.3 mg/mL, BD bioscience) are used in the in vitro assay. To ensure proper energy supply for microsomal degradation of compound, an energy regenerating system comprised of NADP, glucose 6-phosphate and glucose 6-phosphate dehydrogenase is added to samples and suspension is incubated for 60 min at 37° C. in rotary shaker. After incubation time, acetonitrile containing internal standard is added to stop metabolization by precipitation of proteins. After centrifugation step, supernatant is analysed by LC-MS/MS and percentage of compound remaining is analysed.

[2] = Microsomal stability, human microsomes; assay type: in vitro ADME; conditions: human microsomes 0.3 mg/mL, 1 μM compound, 60 min at 37° C.
Experimental: as §1, §2

MMP-13 = MMP-13 (Homo sapiens, UniProt P45452); test: Assay for determining MMP-13 inhibition (fluorogenic substrate); assay type: biochemical
Experimental: The MMP-13 inhibiting activity of the bis-amide metalloprotease inhibiting compounds of the present invention may be measured using any suitable assay known in the art. A standard in vitro assay for MMP-13 inhibiting activity is described in Example 999 and a description of the microsomal stability assay is described in Example 999a.
Assay for Determining MMP-13 Inhibition
The typical assay for MMP-13 activity is carried out in assay buffer comprised of 50 mM Tris, pH 7.5, 150 mM NaCl, 5 mM CaCl2 and 0.05% Brij-35. Different concentrations of tested compounds are prepared in assay buffer in 50 μL aliquots. 10 μL of 40 nM stock solution of MMP-13 enzyme is added to the compound solution. The mixture of enzyme and compound in assay buffer is thoroughly mixed and incubated for 20 minutes at room temperature. Upon the completion of incubation, the assay is started by addition of 40 μL of 12.5 μM stock solution of MMP-13 fluorogenic substrate (Calbiochem Cat. No. 444235). The time-dependent increase in fluorescence is measured at the 325 nm excitation and 393 nm emission by automatic plate multireader. The IC50 values are calculated from the initial reaction rates. Selectivity assays were run in a similar manner using MMP-1, MMP-3, MMP-8, MMP-12, MMP-14 and TACE.

[3] = Cell viability, comparison; assay type: cell-based; conditions: compared with unsubstituted Example 1040d
[4] = Microsomal stability, comparison in text (species not stated); assay type: in vitro ADME; conditions: compared with unsubstituted Example 1040d
Experimental: as §2

[5] = Table 2, methyl substitution at R^2 or R^3, read-out: IC50 (nM), Comparison of MMP-13 Activity Versus Location of Substituent (R^2 or R^3)
[6] = Table 1, read-out: IC50 (nM), Summary of MMP-13 Activity for Compounds of Formula I

Rat (%), microsomal stability, percentage of compound remaining [1] | Human (%), microsomal stability, percentage of compound remaining [2] | IC50 (MMP-13; [6]) | Compound | also measured
– | – | < 200 nM | CCc1cc(CNC(=O)c2cc(C(=O)N[C@@H](C)c3ccc(-c4nnn[nH]4)cc3)ncn2)cs1 [Example 1007o] | –
– | – | < 200 nM | Cc1cc(CNC(=O)c2cc(C(=O)N[C@@H](C)c3ccc(-c4noc(CCC(=O)O)n4)cc3)ncn2)ccc1F [Example 1021] | –
– | – | < 200 nM | Cc1cc(CNC(=O)c2cc(C(=O)N[C@@H](C)c3ccc(C(=O)N4CCOCC4)cc3)ncn2)ccc1F [Example 1028e] | –
96% | 96% | – | C[C@H](NC(=O)c1cc(C(=O)NCc2ccc(-c3nnn[nH]3)cc2)ncn1)c1ccccc1 [Example 1040b] | IC50 (MMP-13; [5]): < 10 nM
38% | 75% | – | COc1cccc(CNC(=O)c2cc(C(=O)NCc3ccc(-c4nnn[nH]4)cc3)ncn2)c1 [Example 1040d, pyrimidine-4,6-dicarboxylic acid 4-(3-methoxybenzylamide) 6-[4-(1H-tetrazol-5-yl)-benzylamide]] | –
58% | 98% | – | O=C(NCc1ccc(F)cc1)c1cc(C(=O)NCc2ccc(-c3nnn[nH]3)cc2)ncn1 [Example 1040e] | –

The next lines start with the compound.

Compound | Rat (%), microsomal stability, percentage of compound remaining [1] | Human (%), microsomal stability, percentage of compound remaining [2] | IC50 (MMP-13; [6]) | also measured
COc1cccc(CNC(=O)c2cc(C(=O)N[C@H](C)c3ccc(-c4nnn[nH]4)cc3)ncn2)c1 (stereo in doubt) [Example 1006] | 70% | 93% | – | IC50 (MMP-13; [5]): > 100 nM
Cc1cc(CNC(=O)c2cc(C(=O)N[C@@H](C)c3ccc(C(=O)O)cc3)ncn2)ccc1F [Example 1000] | – | – | < 200 nM | –
Cc1cc(CNC(=O)c2cc(C(=O)N[C@@H](C(N)=O)c3ccc(-c4nnn[nH]4)cc3)ncn2)ccc1F [Example 1002] | – | – | < 10 nM | –
O=C(NCc1ccc(F)cc1)c1cc(C(=O)N[C@@H](CO)c2ccc(-c3nnn[nH]3)cc2)ncn1 [Example 1004] | – | – | < 200 nM | –
COc1cccc(CNC(=O)c2cc(C(=O)N[C@@H](C)c3ccc(-c4nnn[nH]4)cc3)ncn2)c1 [Example 1005] | – | – | – | cell viability, in words [3]: improvements; microsomal stability, in words [4]: improvements; IC50 (MMP-13; [5]): < 10 nM
Cc1cc(CNC(=O)c2cc(C(=O)N[C@@H](C)c3ccc(-c4nnn[nH]4)cc3)ncn2)ccc1F [Example 1007] | – | – | < 10 nM | –
C[C@H](NC(=O)c1cc(C(=O)NCc2ccc(F)cc2)ncn1)c1ccc(-c2nnn[nH]2)cc1 [Example 1007c] | 90% | 100% | – | –
C[C@H](NC(=O)c1cc(C(=O)NCc2cccs2)ncn1)c1ccc(-c2nnn[nH]2)cc1 [Example 1007d] | – | – | < 1000 nM | –
C[C@@H](NC(=O)c1cc(C(=O)NCc2ccc(-c3nnn[nH]3)cc2)ncn1)c1ccccc1 [Example 1040a] | – | – | – | IC50 (MMP-13; [5]): > 100 nM
